The values below come from patent US20260242427A1 (priority 2024, published 2026).

Structures are written as SMILES.

In experiment [1] the target is T1, human arginase I (hArg, Accession Number: NM_000045.4), free enzyme (Homo sapiens, UniProt P05089).
T1 construct: His tag with thrombin site of pET28 (inferred from the NdeI primer, the stop codon in the reverse primer and nickel purification); made in house; host or cells: E. coli BL21(DE3)
The experiment can be described thus: Effect of urea on the activity of hArg. Particulars: 0 to 1 M urea, 40° C., 6 h. The class given is biochemical. The protocol: (§1) All experiments were performed in triplicate.
as §1

Experiment [2] has as its target T2, 3A-PEI crystals (polyethylenimine-modified Cry3Aa, Bacillus thuringiensis) (Bacillus thuringiensis subsp. tenebrionis, UniProt P0A379).
T2 construct: made in house; host or cells: Bacillus thuringiensis BT407G
T2 sequence (P0A379 1-644): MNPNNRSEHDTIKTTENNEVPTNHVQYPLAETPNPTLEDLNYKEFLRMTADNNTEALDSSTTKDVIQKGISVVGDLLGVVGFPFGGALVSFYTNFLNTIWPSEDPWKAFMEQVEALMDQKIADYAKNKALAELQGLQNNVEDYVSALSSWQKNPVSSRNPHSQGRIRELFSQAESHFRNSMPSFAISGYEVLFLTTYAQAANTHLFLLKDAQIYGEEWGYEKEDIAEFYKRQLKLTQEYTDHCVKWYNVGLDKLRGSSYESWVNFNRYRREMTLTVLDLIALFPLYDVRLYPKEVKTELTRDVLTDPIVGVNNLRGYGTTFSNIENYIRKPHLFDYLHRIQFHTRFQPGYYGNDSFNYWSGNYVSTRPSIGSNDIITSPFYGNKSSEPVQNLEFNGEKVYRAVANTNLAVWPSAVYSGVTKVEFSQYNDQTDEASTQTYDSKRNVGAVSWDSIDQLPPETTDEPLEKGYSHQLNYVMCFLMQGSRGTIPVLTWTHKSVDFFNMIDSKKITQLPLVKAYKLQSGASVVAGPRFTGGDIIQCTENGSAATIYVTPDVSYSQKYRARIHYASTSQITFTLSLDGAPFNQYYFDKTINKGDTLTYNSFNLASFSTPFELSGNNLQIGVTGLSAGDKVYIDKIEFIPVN
The experiment can be described thus: NADH binding capacity of 3A-PEI crystals. To be noted: NaPB 25 mM.

In experiment [3] the target is T3, Pos3Aa crystals (positively charged variant of Cry3Aa, domain II surface residues mutated) (Bacillus thuringiensis, UniProt P0A379).
T3 construct: engineered Cry3Aa, domain II surface residues replaced by Lys/Arg; no PEI; crystals produced in Bacillus thuringiensis (usual host)
The experiment can be described thus: NADH binding capacity of Pos3Aa crystals. To be noted: 0.25 mM NADH, 10° C., 30 min, 340 nm. As for the experimental part: Previous studies by our lab had generated a positively charged variant of Cry3Aa, Pos3Aa, by mutating multiple residues on the surface of domain II of Cry3Aa to lysines creating a positively charged surface.
To compare the binding capacity of 3A-PEI crystals with Cry3Aa and Pos3Aa crystals, the same experiment was conducted as the control.
Cry3Aa is a self-crystallization protein produced naturally by certain strains of Bt. Our group has used crystals and particles of Cry3Aa for entrapment of positively charged small peptides and proteins due to the presence of abundant negatively charged residues, aspartic acid (Asp) and glutamic acid (Glu) residues, on the exposed surface of its domain II, which forms the solvent channels (FIG. 1A). We have engineered a protein called Pos3Aa, derived from the replacement of all these residues in domain II of Cry3Aa with positively charged arginine (Arg) and lysine (Lys) residues, which provide positively charged channels within the crystals. We hypothesized that these crystals would be able to entrap negatively charged molecules, such as phosphorylated cofactors, ionically inside the channels. […] Each molecular mass unit of this polymer (43 kDa) has 3 to 3.6-fold higher protonated nitrogen than poly-Arg and poly-Lys (one positive charge per 157 and 129 molecular masses), respectively. […]

Experiment [4] deals with T1, human arginase I (hArg, Accession Number: NM_000045.4), free enzyme. The class given is biochemical. Particulars: L-arginine 0-500 mM, 40° C., 50 mM HEPES pH 8.0, 0.1 mM Mn^2+. As for the experimental part: All positive colonies were verified by DNA sequencing (BGI).
Expression and Purification of ODC and hArg Free Enzymes
as §1, §1

Experiment [5] deals with T4, hArg-Cry1Ab fusion particles (human arginase I fused to the N-terminus of Cry1Ab) (Homo sapiens, UniProt P05089).
T4 construct: His tag of pET28 (inferred from the NdeI forward primer only) (N); made in house; host or cells: E. coli BL21(DE3)
T4 sequence (P05089 other isoform, or with tags, fused parts or gaps): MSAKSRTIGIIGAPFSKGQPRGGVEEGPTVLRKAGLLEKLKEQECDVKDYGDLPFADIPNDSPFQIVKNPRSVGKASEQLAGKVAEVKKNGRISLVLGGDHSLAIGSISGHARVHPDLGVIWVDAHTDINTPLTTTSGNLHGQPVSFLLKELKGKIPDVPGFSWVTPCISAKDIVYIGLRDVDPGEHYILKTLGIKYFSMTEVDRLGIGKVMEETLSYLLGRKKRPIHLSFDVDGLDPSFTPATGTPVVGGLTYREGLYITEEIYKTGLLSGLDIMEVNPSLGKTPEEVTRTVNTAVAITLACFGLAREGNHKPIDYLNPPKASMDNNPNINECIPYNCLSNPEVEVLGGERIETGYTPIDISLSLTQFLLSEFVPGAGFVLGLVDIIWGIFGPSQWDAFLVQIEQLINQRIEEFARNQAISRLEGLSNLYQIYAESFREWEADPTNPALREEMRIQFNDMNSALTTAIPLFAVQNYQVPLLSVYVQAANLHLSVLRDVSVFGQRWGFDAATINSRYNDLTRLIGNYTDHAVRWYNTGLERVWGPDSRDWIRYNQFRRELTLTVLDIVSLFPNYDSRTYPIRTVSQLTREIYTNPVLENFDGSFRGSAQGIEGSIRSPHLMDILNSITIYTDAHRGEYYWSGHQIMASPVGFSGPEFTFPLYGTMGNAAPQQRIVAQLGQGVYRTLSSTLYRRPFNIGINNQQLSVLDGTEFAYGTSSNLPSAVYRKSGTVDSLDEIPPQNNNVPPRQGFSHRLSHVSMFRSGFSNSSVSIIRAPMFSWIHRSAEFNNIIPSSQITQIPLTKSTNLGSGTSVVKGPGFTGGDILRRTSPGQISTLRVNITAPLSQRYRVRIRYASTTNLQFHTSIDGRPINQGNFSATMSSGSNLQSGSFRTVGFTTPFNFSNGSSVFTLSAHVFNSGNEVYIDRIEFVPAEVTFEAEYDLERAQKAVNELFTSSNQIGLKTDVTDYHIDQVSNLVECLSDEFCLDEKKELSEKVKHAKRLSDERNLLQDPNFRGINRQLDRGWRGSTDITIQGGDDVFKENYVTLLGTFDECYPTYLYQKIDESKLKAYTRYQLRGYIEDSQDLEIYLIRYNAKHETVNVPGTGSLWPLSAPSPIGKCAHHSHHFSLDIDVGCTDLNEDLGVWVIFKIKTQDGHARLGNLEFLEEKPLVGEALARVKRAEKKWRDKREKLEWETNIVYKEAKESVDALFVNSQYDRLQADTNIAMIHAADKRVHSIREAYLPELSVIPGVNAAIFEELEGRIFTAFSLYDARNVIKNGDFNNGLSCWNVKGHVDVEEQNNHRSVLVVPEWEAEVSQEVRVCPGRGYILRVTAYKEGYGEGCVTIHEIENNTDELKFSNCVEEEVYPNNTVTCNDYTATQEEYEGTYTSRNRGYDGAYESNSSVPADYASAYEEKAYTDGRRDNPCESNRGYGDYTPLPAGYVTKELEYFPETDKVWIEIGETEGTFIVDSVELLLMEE
The experiment is described as follows: Kinetic studies, immobilized hArg-Cry1Ab particles. The class given is biochemical. To be noted: L-arginine 0-500 mM, 40° C., pH 8.0, 0.1 mM Mn^2+, based on concentration of hArg.

T1 sequence (P05089 whole entry): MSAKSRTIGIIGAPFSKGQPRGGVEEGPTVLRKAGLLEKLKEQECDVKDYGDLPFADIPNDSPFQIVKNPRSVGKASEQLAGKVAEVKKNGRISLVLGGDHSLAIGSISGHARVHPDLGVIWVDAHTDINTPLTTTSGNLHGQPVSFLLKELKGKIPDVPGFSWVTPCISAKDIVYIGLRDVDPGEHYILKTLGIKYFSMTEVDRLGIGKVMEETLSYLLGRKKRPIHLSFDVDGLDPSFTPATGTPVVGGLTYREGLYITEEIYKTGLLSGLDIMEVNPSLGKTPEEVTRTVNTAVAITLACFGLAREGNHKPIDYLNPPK

In the case of `NC(N)=O` [urea], in experiment [1], the “effect of urea on activity” value was “unaffected”.
On to `NC(=O)C1=CN([C@@H]2O[C@H](COP(=O)(O)OP(=O)(O)OC[C@H]3O[C@@H](n4cnc5c(N)ncnc54)[C@H](O)[C@@H]3O)[C@@H](O)[C@H]2O)C=CC1` [NADH, nicotinamide adenine dinucleotide], for which the NADH binding capacity in experiment [2] (pH 6.0) came out at 453.5 ± 2.8 µmol/g; in experiment [2] (pH 7.0) it was 412 ± 4 µmol/g; in experiment [2] (pH 8.0), 350.2 ± 3.6 µmol/g; in experiment [3], 11.2 ± 0.7 µmol/g.
Consider `N=C(N)NCCC[C@H](N)C(=O)O` [L-arginine], for which the kcat in experiment [4] amounted to 99.9 ± 1.7 s⁻¹; in experiment [5] it was 59.7 ± 0.8 s⁻¹. In addition, the Km in experiment [4] (read-out: appKm) stood at 20 ± 1.3 mM; in experiment [5] (read-out: appKm), 18.5 ± 0.3 mM.

One may read the kcat as the number of substrate molecules converted per active site and unit of time at saturation.
